The structures appear in SMILES notation.

In the first assay the target is PDE9 (Homo sapiens, UniProt O76083). The experiment in a line: PDE9 inhibition assay. It is filed as biochemical.
PDE9, sequence (O76083 whole entry): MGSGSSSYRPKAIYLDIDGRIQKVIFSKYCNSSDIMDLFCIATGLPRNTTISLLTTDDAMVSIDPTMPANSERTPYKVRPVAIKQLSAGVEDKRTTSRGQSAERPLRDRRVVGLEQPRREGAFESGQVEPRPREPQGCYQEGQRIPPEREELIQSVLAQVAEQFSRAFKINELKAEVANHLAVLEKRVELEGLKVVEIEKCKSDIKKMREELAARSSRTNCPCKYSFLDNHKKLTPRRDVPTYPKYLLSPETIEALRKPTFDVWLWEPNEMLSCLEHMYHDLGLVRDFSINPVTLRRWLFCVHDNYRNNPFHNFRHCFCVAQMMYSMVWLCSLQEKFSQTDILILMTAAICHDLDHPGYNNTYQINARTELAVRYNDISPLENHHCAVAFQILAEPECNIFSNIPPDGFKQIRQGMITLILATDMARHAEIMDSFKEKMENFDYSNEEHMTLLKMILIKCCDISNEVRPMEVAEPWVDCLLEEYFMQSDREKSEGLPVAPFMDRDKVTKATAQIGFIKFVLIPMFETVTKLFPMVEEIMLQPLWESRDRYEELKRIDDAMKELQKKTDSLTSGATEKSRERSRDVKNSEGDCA
Conditions: not given
The procedure: Reactions are initiated by addition of the cyclic nucleotide substrate, and reactions are allowed to proceed for one hr at room temperature before being terminated through mixing with 15 uL 8 mg/mL yttrium silicate SPA beads (Amersham). […] IC50 values were calculated by non linear regression using XLfit (IDBS).
As usually defined, the IC50 is the concentration that inhibits the measured activity by half. `Cc1ccnc(C2CN(C(C)c3cn4c(-c5ccccc5)ncc4c(=O)[nH]3)C2)c1` (stereo not drawn) [Compound 29, 6-[1-[3-(4-methyl-2-pyridyl)azetidin-1-yl]ethyl]-3-phenyl-7h-imidazo[1,5-a]pyrazin-8-one] showed an IC50 of 0.02 µM. Compound `CCc1ccc(C2CN(C(C)c3cn4c(-c5ccccc5)ncc4c(=O)[nH]3)C2)cc1` (stereo not drawn) [Compound 30, 6-[1-[3-(4-ethylphenyl)azetidin-1-yl]ethyl]-3-phenyl-7h-imidazo[1,5-a]pyrazin-8-one] came in with an IC50 of 0.016 µM. Take `CC(c1cn2c(-c3ccccc3)ncc2c(=O)[nH]1)N1CC(Oc2ccccc2F)C1` (stereo not drawn) [Compound 32, 6-[1-[3-(2-fluorophenoxy)azetidin-1-yl]ethyl]-3-phenyl-7h-imidazo[1,5-a]pyrazin-8-one]: the midpoint of inhibition, the IC50, lay at 0.072 µM. The compound `O=c1[nH]c(CN2CC(Oc3ccccc3F)C2)cn2c(-c3ccccc3)ncc12` [Compound 33, 6-[[3-(2-fluorophenoxy)azetidin-1-yl]methyl]-3-phenyl-7h-imidazo[1,5-a]pyrazin-8-one] displayed an IC50 of 0.018 µM. `CC(c1cn2c(C3CCCC3)ncc2c(=O)[nH]1)N1CC(Oc2ccc(F)cc2)C1` (stereo not drawn) [Compound 47, 3-cyclopentyl-6-[1-[3-(4-fluorophenoxy)azetidin-1-yl]ethyl]-7h-imidazo[1,5-a]pyrazin-8-one] came in with an IC50 of 0.003 µM. On to `O=c1[nH]c(CN2CC(Oc3ccccc3F)C2)cn2c(C3CCOCC3)ncc12` [Compound 50, 6-[[3-(2-fluorophenoxy)azetidin-1-yl]methyl]-3-tetrahydropyran-4-yl-7h-imidazo[1,5-a]pyrazin-8-one], for which the IC50 was 0.021 µM.

On to `O=c1[nH]c(CN2CC(OCc3ccccc3)C2)cn2c(C3CCCC3)ncc12` [Compound 56, 6-[(3-benzyloxyazetidin-1-yl)methyl]-3-cyclopentyl-7h-imidazo[1,5-a]pyrazin-8-one], for which the IC50 was 0.05 µM. Regarding `CC(C)OC1CN(Cc2cn3c(C4CCCC4)ncc3c(=O)[nH]2)C1` [Compound 57, 3-cyclopentyl-6-[(3-isopropoxyazetidin-1-yl)methyl]-7h-imidazo[1,5-a]pyrazin-8-one], half-maximal inhibition (IC50) required 0.017 µM.

`CC(C)COC1CN(Cc2cn3c(C4CCCC4)ncc3c(=O)[nH]2)C1` [Compound 58, 3-cyclopentyl-6-[(3-isobutoxyazetidin-1-yl)methyl]-7h-imidazo[1,5-a]pyrazin-8-one] gave an IC50 of 0.004 µM. The compound `CC(c1cn2c(C3CCCC3)ncc2c(=O)[nH]1)N1CC(c2ccc(N(C)C)cc2)C1` (stereo not drawn) [Compound 59, 3-cyclopentyl-6-[1-[3-(4-dimethylaminophenyl)azetidin-1-yl]ethyl]-7h-imidazo[1,5-a]pyrazin-8-one] yielded an IC50 of 0.057 µM.

`O=c1[nH]c(CN2CC(c3ccccn3)C2)cn2c(-c3ccc(F)cc3)ncc12` [Compound 61, 3-(4-fluorophenyl)-6-[[3-(2-pyridyl)azetidin-1-yl]methyl]-7h-imidazo[1,5-a]pyrazin-8-one] returned an IC50 of 0.079 µM. On to `O=c1[nH]c(CN2CC(c3ccccn3)C2)cn2c(C3CCOCC3)ncc12` [Compound 62, 6-[[3-(2-pyridyl)azetidin-1-yl]methyl]-3-tetrahydropyran-4-yl-7h-imidazo[1,5-a]pyrazin-8-one], for which the IC50 was 0.078 µM.

Staying with this assay, now noted: SPA assay, 10 nM 3H-cAMP, 1 hour incubation; read-out: IC50.
Regarding `CC1CN(Cc2ccccc2)CC1c1cn2c(-c3ccccc3)ncc2c(=O)[nH]1` (stereo not drawn) [Compound 31, 6-(1-benzyl-4-methyl-pyrrolidin-3-yl)-3-phenyl-7h-imidazo[1,5-a]pyrazin-8-one], the IC50 was found to be 0.033 µM. Take `COc1ccc(C2CN(C(C)c3cn4c(-c5ccccc5)ncc4c(=O)[nH]3)C2)cc1` (stereo not drawn) [Compound 34, 6-[1-[3-(4-methoxyphenyl)azetidin-1-yl]ethyl]-3-phenyl-7h-imidazo[1,5-a]pyrazin-8-one]: the IC50 was 0.066 µM. With `N#Cc1ccc(C2CN(Cc3cn4c(-c5ccccc5)ncc4c(=O)[nH]3)C2)cc1` [Compound 35, 4-[1-[(8-oxo-3-phenyl-7h-imidazo[1,5-a]pyrazin-6-yl)methyl]azetidin-3-yl]benzonitrile], the IC50 was found to be 0.049 µM. Still for that read-out and setting: to `CC(c1cn2c(-c3ccccc3)ncc2c(=O)[nH]1)N1CC(c2ncccn2)C1` (stereo not drawn) [Compound 36, 3-phenyl-6-[1-(3-pyrimidin-2-ylazetidin-1-yl)ethyl]-7h-imidazo[1,5-a]pyrazin-8-one] belongs 0.079 µM; to `O=c1[nH]c(CN2CC(c3ccccn3)C2)cn2c(-c3ccccc3)ncc12` [Compound 37, 3-phenyl-6-[[3-(2-pyridyl)azetidin-1-yl]methyl]-7h-imidazo[1,5-a]pyrazin-8-one], 0.029 µM.

As to `CC(c1cn2c(-c3ccccc3)ncc2c(=O)[nH]1)N1CC(c2ccc(C#N)cc2)C1` (stereo not drawn) [Compound 38, 4-[1-[1-(8-oxo-3-phenyl-7h-imidazo[1,5-a]pyrazin-6-yl)ethyl]azetidin-3-yl]benzonitrile], the IC50 turned out to be 0.023 µM. Still for that read-out and setting: for `O=c1[nH]c(CN2CC(Oc3ncccn3)C2)cn2c(C3CCCC3)ncc12` [Compound 39, 3-cyclopentyl-6-[(3-pyrimidin-2-yloxyazetidin-1-yl)methyl]-7h-imidazo[1,5-a]pyrazin-8-one] the value was 0.022 µM; for `CC(c1cn2c(C3CCCC3)ncc2c(=O)[nH]1)N1CC(c2ccc(F)cc2)C1` (stereo not drawn) [Compound 40, 3-cyclopentyl-6-[1-[3-(4-fluorophenyl)azetidin-1-yl]ethyl]-7h-imidazo[1,5-a]pyrazin-8-one], 0.005 µM; for `COc1ccc(C2CN(Cc3cn4c(C5CCCC5)ncc4c(=O)[nH]3)C2)cc1` [Compound 41, 3-cyclopentyl-6-[[3-(4-methoxyphenyl)azetidin-1-yl]methyl]-7h-imidazo[1,5-a]pyrazin-8-one], 0.026 µM. With `CC(c1cn2c(C3CCCC3)ncc2c(=O)[nH]1)N1CC(Oc2ncccn2)C1` (stereo not drawn) [Compound 42, 3-cyclopentyl-6-[1-(3-pyrimidin-2-yloxyazetidin-1-yl)ethyl]-7h-imidazo[1,5-a]pyrazin-8-one], the IC50 was found to be 0.008 µM. Consider `CC1CN(Cc2ccccn2)CC1c1cn2c(-c3ccccc3)ncc2c(=O)[nH]1` (stereo not drawn) [Compound 43, 6-[4-methyl-1-(2-pyridylmethyl)pyrrolidin-3-yl]-3-phenyl-7h-imidazo[1,5-a]pyrazin-8-one], for which the IC50 was 0.014 µM. On to `O=c1[nH]c(CN2CC(c3ccc(F)cc3)C2)cn2c(C3CCOCC3)ncc12` [Compound 44, 6-[[3-(4-fluorophenyl)azetidin-1-yl]methyl]-3-tetrahydropyran-4-yl-7h-imidazo[1,5-a]pyrazin-8-one], for which the IC50 was found to be 0.025 µM. Regarding `O=c1[nH]c(CN2CC(OCc3ccccc3)C2)cn2c(-c3ccc(F)cc3)ncc12` [Compound 45, 6-[(3-benzyloxyazetidin-1-yl)methyl]-3-(4-fluorophenyl)-7h-imidazo[1,5-a]pyrazin-8-one], the IC50 is 0.001 µM. On the same count and under the same terms, for `Cc1nc2ccccc2nc1OC1CN(Cc2cn3c(C4CCCC4)ncc3c(=O)[nH]2)C1` [Compound 46, 3-cyclopentyl-6-[[3-(3-methylquinoxalin-2-yl)oxyazetidin-1-yl]methyl]-7h-imidazo[1,5-a]pyrazin-8-one] the value was 0.006 µM; for `CN(C)c1ccc(C2CN(Cc3cn4c(C5CCCC5)ncc4c(=O)[nH]3)C2)cc1` [Compound 48, 3-cyclopentyl-6-[[3-(4-dimethylaminophenyl)azetidin-1-yl]methyl]-7h-imidazo[1,5-a]pyrazin-8-one], 0.04 µM; for `O=c1[nH]c(CN2CC(Oc3ccccc3F)C2)cn2c(-c3ccc(F)cc3)ncc12` [Compound 49, 6-[[3-(2-fluorophenoxy)azetidin-1-yl]methyl]-3-(4-fluorophenyl)-7h-imidazo[1,5-a]pyrazin-8-one], 0.016 µM. Regarding `CN(C)c1ccc(C2CN(Cc3cn4c(-c5ccc(F)cc5)ncc4c(=O)[nH]3)C2)cc1` [Compound 51, 6-[[3-(4-dimethylaminophenyl)azetidin-1-yl]methyl]-3-(4-fluorophenyl)-7h-imidazo[1,5-a]pyrazin-8-one], the IC50 was determined as 0.007 µM.

Turning to `CC(c1cn2c(C3CCCC3)ncc2c(=O)[nH]1)N1CC(Oc2ccccc2F)C1` (stereo not drawn) [Compound 52, 3-cyclopentyl-6-[1-[3-(2-fluorophenoxy)azetidin-1-yl]ethyl]-7h-imidazo[1,5-a]pyrazin-8-one], the IC50 was 0.049 µM. For `O=c1[nH]c(CN2CC(c3ncccn3)C2)cn2c(-c3ccc(F)cc3)ncc12` [Compound 53, 3-(4-fluorophenyl)-6-[(3-pyrimidin-2-ylazetidin-1-yl)methyl]-7h-imidazo[1,5-a]pyrazin-8-one], the IC50 was 0.022 µM.

For `O=c1[nH]c(CN2CC(c3ncccn3)C2)cn2c(C3CCOCC3)ncc12` [Compound 54, 6-[(3-pyrimidin-2-ylazetidin-1-yl)methyl]-3-tetrahydropyran-4-yl-7h-imidazo[1,5-a]pyrazin-8-one], the IC50 is 0.102 µM. In the case of `O=c1[nH]c(CN2CC(Oc3cnccn3)C2)cn2c(-c3ccc(F)cc3)ncc12` [Compound 55, 3-(4-fluorophenyl)-6-[(3-pyrazin-2-yloxyazetidin-1-yl)methyl]-7h-imidazo[1,5-a]pyrazin-8-one], the IC50 amounted to 0.009 µM. Take `O=c1[nH]c(CN2CC(Oc3cccc(F)n3)C2)cn2c(-c3ccc(F)cc3)ncc12` [Compound 60, 3-(4-fluorophenyl)-6-[[3-[(6-fluoro-2-pyridyl)oxy]azetidin-1-yl]methyl]-7h-imidazo[1,5-a]pyrazin-8-one]: the IC50 came out at 0.164 µM.

In the case of `O=c1[nH]c(CN2CC(Oc3ccc(F)cc3)C2)cn2c(-c3ccc(F)cc3)ncc12` [Compound 63, 6-[[3-(4-fluorophenoxy)azetidin-1-yl]methyl]-3-(4-fluorophenyl)-7h-imidazo[1,5-a]pyrazin-8-one], the half-inhibitory concentration (IC50) was found to be 0.013 µM. Turning to `O=c1[nH]c(CN2CC(Oc3ccc(OC(F)(F)F)cc3)C2)cn2c(C3CCOCC3)ncc12` [Compound 64, 3-tetrahydropyran-4-yl-6-[[3-[4-(trifluoromethoxy)phenoxy]azetidin-1-yl]methyl]-7h-imidazo[1,5-a]pyrazin-8-one], the IC50 was found to be 0.013 µM.

Source of the values: patent publication US9643970B2, “Substituted imidazo [1,5-a]pyrazines as PDE9 inhibitors” (H Lundbeck A/S, priority 2012, dated 2017).
